Results on eight compounds are retold here after ChEMBL document CHEMBL1201862, “PubChem BioAssay data set” (2004).

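Each compound was tested at five concentrations against cells in 96-well plates for 48 hours. GI50 = concentration required for 50% inhibition of growth.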 The source made the active and inactive calls. Rule as the data show it: active = GI50 up to about 1.1 µM and inactive = higher. Bounds are passed on as bounds.

Among the test systems are SNB-75; MDA-MB-435; A498; T47D; M14; HOP-62; NCI-H460; SK-MEL-28; HCT-15; Malme-3M; BT-549; SNB-19; SK-MEL-5; SF-268; MCF7; HCT-116; HL-60; SK-OV-3; MOLT-4; SR.
What all share (assay): NCI anticancer screen, dose series, 48 h

With `NC(=O)NC(=O)C1CCCCC1C(=O)O` (configuration not stated), the GI50 with SNB-75, in the assay with MDA-MB-435, in the assay on A498, in the assay on T47D, in the assay with M14 and in the assay on HOP-62 was > 100 µM (inactive) each time. For the same compound, the GI50 with NCI-H460 was > 100 µM (inactive); with SK-MEL-28, > 100 µM (inactive); in the assay with HCT-15, more than 100 µM; in the assay on Malme-3M it was > 100 µM (inactive); in the assay on BT-549 it was > 100 µM (inactive); with SNB-19, > 100 µM (inactive). In addition, the GI50 in the assay on SK-MEL-5, in the assay on SF-268, with MCF7, with HCT-116, in the assay with HL-60 and in the assay on SK-OV-3 was > 100 µM (inactive) each time.
As to `C/C(=N\n1c(Cc2ccccc2)n[nH]c1=O)c1ccccc1`, the GI50 with MDA-MB-435 was > 100 µM (inactive); with A498 it was > 100 µM (inactive); with T47D, > 100 µM (inactive); in the assay with M14, > 100 µM (inactive); in the assay on SK-MEL-28 it was > 100 µM (inactive); in the assay on HCT-15 it was more than 100 µM. Besides, the GI50 in the assay with Malme-3M, in the assay with BT-549, in the assay with SNB-19, in the assay on SK-MEL-5, in the assay with SF-268 and with MCF7 was > 100 µM (inactive) throughout. Besides, the GI50 with HCT-116, in the assay on MOLT-4 and in the assay on HL-60 was > 100 µM (inactive) each time.
With `CC(C)CC1[C@@H](OCc2ccccc2)COS(=O)(=O)N1Cc1ccccc1` (some centres not stated), the GI50 in the assay on SNB-75 was 82 µM (inactive); with MDA-MB-435, 44.5 µM (inactive); with A498, > 100 µM (inactive); with T47D, > 100 µM (inactive); in the assay on M14, > 100 µM (inactive); in the assay with HOP-62, > 100 µM (inactive). The GI50 in the assay with NCI-H460 was > 100 µM (inactive); in the assay on SK-MEL-28, > 100 µM (inactive); with HCT-15, 74.5 µM; in the assay with Malme-3M, 62.5 µM (inactive); in the assay with BT-549, > 100 µM (inactive); in the assay with SNB-19 it was 48.1 µM (inactive). Also, the GI50 in the assay with SK-MEL-5 is 83.2 µM (inactive); with SF-268 it was 6.64 µM (inactive); in the assay with MCF7, 91.8 µM (inactive); in the assay on HCT-116, 53.5 µM (inactive); in the assay with MOLT-4, 73.6 µM (inactive); in the assay with HL-60, 46.2 µM (inactive). The GI50 in the assay with SK-OV-3 was > 100 µM (inactive).
On to `Cc1ccc(-c2cc(-c3ccc(Cl)cc3)nc(/N=C3\C(=O)N(CN4CCOCC4)c4ccccc43)n2)cc1`, for which the GI50 is 25.4 µM (inactive) in the assay on SNB-75; 19 µM (inactive) in the assay on MDA-MB-435; 18.8 µM (inactive) in the assay on A498; 32.9 µM (inactive) in the assay on T47D; 26.2 µM (inactive) in the assay with M14; 28 µM (inactive) with HOP-62. The GI50 in the assay with NCI-H460 is 14 µM (inactive); in the assay on SK-MEL-28, 49.1 µM (inactive); in the assay with HCT-15, 26.6 µM; with Malme-3M it was 22.9 µM (inactive); in the assay on BT-549, 27.5 µM (inactive); in the assay with SNB-19, 15.1 µM (inactive). Further, the GI50 with SK-MEL-5 was 17.6 µM (inactive); with SF-268, 30.4 µM (inactive); in the assay with MCF7, 19 µM (inactive); in the assay on HCT-116, 24.9 µM (inactive); in the assay with MOLT-4, 8.69 µM (inactive); with HL-60 it was 9.02 µM (inactive). In addition, the GI50 with SK-OV-3 is 31.1 µM (inactive).
In the case of `O=C(CCCN1CCC(O)(c2ccc(Cl)cc2)CC1)c1ccc(F)cc1` [HALOPERIDOL], the GI50 in the assay on SNB-75 was 23.8 µM (inactive); in the assay with MDA-MB-435, 17.5 µM (inactive); in the assay on T47D it was 37.5 µM (inactive); in the assay with M14 it was 18.5 µM (inactive); with HOP-62, 36.1 µM (inactive); in the assay on NCI-H460, 18.8 µM (inactive). The GI50 was 18 µM (inactive) in the assay on SK-MEL-28; 48.1 µM (inactive) in the assay with SR; 16.6 µM with HCT-15; 19.6 µM (inactive) in the assay on Malme-3M; 31 µM (inactive) in the assay with BT-549; > 100 µM (inactive) in the assay with SNB-19. In addition, the GI50 was 15.9 µM (inactive) in the assay with SK-MEL-5; 48.2 µM (inactive) with SF-268; 37.9 µM (inactive) with MCF7; 15.1 µM (inactive) in the assay on HCT-116; 89.7 µM (inactive) in the assay with MOLT-4; 34.9 µM (inactive) with SK-OV-3.
On to `Cc1ccc(OCC2CO2)c(Br)c1` (configuration not stated), for which the GI50 with MDA-MB-435 is 18.7 µM (inactive); in the assay on A498 it was 34.4 µM (inactive); in the assay with T47D it was 63.1 µM (inactive); with M14, 34.1 µM (inactive); in the assay on HOP-62, 39.4 µM (inactive); with NCI-H460 it was 21.9 µM (inactive). Moreover, the GI50 in the assay on SK-MEL-28 was 27.5 µM (inactive); in the assay with HCT-15, 14 µM; with Malme-3M, 56.5 µM (inactive); in the assay with BT-549, < 0.01 µM (active); in the assay on SNB-19 it was 41.3 µM (inactive); with SK-MEL-5, 18.1 µM (inactive). Besides, the GI50 in the assay on SF-268 is 13.1 µM (inactive); in the assay with MCF7, 14.7 µM (inactive); with HCT-116, 16.1 µM (inactive); in the assay with MOLT-4, 7.83 µM (inactive); with HL-60, 30.1 µM (inactive); in the assay with SK-OV-3 it was 19.1 µM (inactive).
Turning to `COc1ccc(N(c2ccc(C#N)cc2)c2ccc(C#N)cc2)cc1`, the GI50 with SNB-75 was > 100 µM (inactive); with MDA-MB-435, > 100 µM (inactive); with A498, 65.3 µM (inactive); with T47D, 4.57 µM (inactive); with M14, > 100 µM (inactive); in the assay with HOP-62, > 100 µM (inactive). In addition, the GI50 was > 100 µM (inactive) in the assay on NCI-H460; > 100 µM (inactive) in the assay with SK-MEL-28; 75.2 µM in the assay on HCT-15; > 100 µM (inactive) in the assay with BT-549; > 100 µM (inactive) in the assay on SNB-19; > 100 µM (inactive) in the assay with SK-MEL-5. The GI50 in the assay on SF-268 was > 100 µM (inactive); in the assay on MCF7 it was 26 µM (inactive); with HCT-116, 93.5 µM (inactive); with MOLT-4 it was 5.2 µM (inactive); in the assay on HL-60, 3.97 µM (inactive); with SK-OV-3 it was > 100 µM (inactive).
As for `O=C(N/C(=C/c1ccc(Cl)cc1)c1nc2ccccc2c(=O)n1Nc1ccc([N+](=O)[O-])cc1[N+](=O)[O-])c1ccccc1`, the GI50 in the assay on SNB-75, in the assay on MDA-MB-435, in the assay on T47D, in the assay with M14, in the assay with HOP-62 and in the assay on NCI-H460 was > 100 µM (inactive) in each case. In addition, the GI50 with SK-MEL-28 was > 100 µM (inactive); in the assay on SR it was > 100 µM (inactive); with HCT-15, more than 100 µM; in the assay with Malme-3M, > 100 µM (inactive); with BT-549 it was > 100 µM (inactive); in the assay with SNB-19, > 100 µM (inactive). Also, the GI50 with SK-MEL-5, with MCF7, in the assay on HCT-116, in the assay on MOLT-4 and in the assay with SK-OV-3 was > 100 µM (inactive) throughout.
